The values that follow come from patent publication US20180169045A1, “AMINO ACID COMPOSITIONS AND METHODS FOR THE TREATMENT OF LIVER DISEASES” (AXCELLA HEALTH INC., priority 2016, published 2018).

For one assay, the system named is STAM™ mice. Nature of the assay: STAM mouse NASH model (Example 6): activated hepatic stellate cells, α-smooth muscle actin staining. Format: in vivo. The settings on record: individual animals. On the procedure: Amino Acid Composition A-1 and Obeticholic acid (6α-ethyl-chenodeoxycholic acid; “OCA”) were tested for their ability to treat NASH in the STAM™ model (Stelic Institute & Co., Tokyo, Japan; Saito K. et al., 2015 Sci Rep 5:12466). Two additional groups of normal C57BL/6 mice fed standard chow and vehicle treated STAM™ mice were included as controls. All animals receiving treatment or vehicle were treated starting at 6 weeks until 9 weeks of age. Compounds were administered via oral gavage, with a dose volume of 10 ml/kg. Amino Acid Composition A-1 was administered twice daily at a dose of 1500 mg/kg, and OCA was administered once daily at a dose of 30 mg/kg.
STAM™ is a model for non-alcoholic steatohepatitis (NASH) and hepatocellular carcinoma (HCC), developed by SMC Laboratories, Inc. and created by the combination of chemical and dietary interventions using C57BL/6 mice (Saito K. et al., 2015 Sci Rep 5:12466). Mice are treated with a low dose of streptozotocin at birth and fed a high fat diet starting at 4 weeks. Evidence of fatty liver is present by 5 weeks, followed by NASH by 7 weeks and fibrosis by 9 weeks. […]
Liver sections of all mice were stained for the marker α-smooth muscle actin (αSMA) to identify activated hepatic stellate cells. Images were quantified using the percent of positively stained area was used as a measure of stellate cell activation. […]

Another assay concerns FATZO mice. Kind of assay: FATZO mouse NASH model (Example 15): liver histology (NAS, fibrosis score, Sirius Red, Oil Red O). Format: in vivo. As to conditions: FATZO mice on WDF, 4 weeks. The source says: NASH was induced in 60 male FATZO mice by a western diet (Research Diet # D12079B; fat 40% kcal, protein 17% kcal, carbohydrate 43% kcal) supplemented with 5% fructose in the drinking water (WDF) during a 16 week induction phase. Diets and water were available ad libitum. Littermate control male FATZO mice fed with a control diet (n=6, Purina #5008; fat 17% kcal, protein 27% kcal, carbohydrate 56% kcal) and sterile water were set up for control purpose. Mice were housed in plastic cages with microisolator. Sterilized bedding was replaced once a week. Mice were housed three per cage and maintained on a twelve hour light cycle throughout study duration. Room temperature was monitored daily and maintained at 22-25° C. Body weight was recorded every week during the induction phase. […]
[…], […]+G, LRQNAC, OCA and Vehicle were administered by oral gavage at a volume of 10 mL/kg throughout the study. Dosages were calculated by daily body weight. […]
The livers were evaluated using the NASH liver criteria for scoring. In this mouse study, one cross section of liver for each case was analyzed with the NASH score system. […] The NAS can range from 0 to 8 and is calculated by the sum of scores of steatosis (0-3), lobular inflammation (0-3) and hepatocyte ballooning (0-2) from H&E stained sections. Fibrosis was scored (0-4) from picrosirius red stained slides. […]

Assay [1] has as its system LX-2 hepatic stellate cells. Kind of assay: TGFβ1-induced fibrogenic gene expression (Col1a1, Acta2, Timp2) in LX-2 cells, qRT-PCR. Format: cell-based. Set-up: key to Col1a1 gene expression, Mean: relative expression normalized to β-actin by ΔΔCt method. As to conditions: for Col1a1 gene expression, Mean: TGFβ1 Yes. (Real-time PCR tracks product formation cycle by cycle.)

[2] abbreviates: individual amino acid at 1X HMDB concentration.
[3] abbreviates: individual amino acid at 50X HMDB concentration.

In the case of `CC[C@H]1[C@@H](O)[C@@H]2[C@H](CC[C@]3(C)[C@@H]([C@H](C)CCC(=O)O)CC[C@@H]23)[C@@]2(C)CC[C@@H](O)C[C@@H]12` [OCA, 6α-ethyl-chenodeoxycholic acid], in the assay with STAM™ mice, the “Activated hepatic stellate cells (mean positively stained area, α-smooth muscle actin): raw data” value stood at 1.5. Besides, the “NAFLD activity score (NAS) compared to vehicle, in words” value with FATZO mice is on record as “no significant effect”.

As for `N=C(N)NCCC[C@H](N)C(=O)O` [ARG], the entries for the “Col1a1 gene expression, Mean” value in assay [1] (setting [2]) and in assay [1] (setting [3]) were 1.620 and 1.970, respectively.

With `NC(=O)CC[C@H](N)C(=O)O` [GLN], the results for the “Col1a1 gene expression, Mean” value in assay [1] (setting [2]) and in assay [1] (setting [3]) were 2.340 and 2.194, respectively.

In the case of `N[C@@H](CS)C(=O)O` [Cysteine, L-Cysteine], the “Col1a1 expression of individual amino acids, in words” value in assay [1] (individual amino acid at 50× HMDB derived concentration) is “significant decrease”.

In the case of `N[C@@H](CS)C(=O)O` [CYS], the “Col1a1 gene expression, Mean” value in assay [1] (setting [2]) is 2.491; in assay [1] (setting [3]), 1.695.

As to `CC(C)[C@H](N)C(=O)O` [VAL], the “Col1a1 gene expression, Mean” value in assay [1] (setting [2]) was determined as 2.093; in assay [1] (setting [3]), 2.203.

As for `CC(C)C[C@H](N)C(=O)O` [LEU], the “Col1a1 gene expression, Mean” value in assay [1] (setting [2]) turned out to be 1.901; in assay [1] (setting [3]), 2.372.
